The values that follow come from US20170240535A1, “HDAC1/2 INHIBITORS FOR THE TREATMENT OF NEURODEGENERATIVE AND/OR COGNITIVE DISORDERS” (Regenacy Pharmaceuticals, LLC, priority 2016, published 2017).

One series addresses T1, HDAC2 (Homo sapiens, UniProt Q92769).
T1 construct: purchased BPS Biosciences
In words: HDAC enzyme assay, HDAC2. It counts as biochemical. Particulars: enzyme and compound incubated 24 hours at room temperature. Here is the method:
(§1) Compounds for testing were diluted in DMSO to 50 fold the final concentration and a ten point three fold dilution series was made. The compounds were diluted in assay buffer (50 mM HEPES, pH 7.4, 100 mM KCl, 0.001% Tween-20, 0.05% BSA, 20 μM TCEP) to 6 fold their final concentration. The HDAC enzymes (purchased from BPS Biosciences) were diluted to 1.5 fold their final concentration in assay buffer. The tripeptide substrate and trypsin at 0.05 μM final concentration were diluted in assay buffer at 6 fold their final concentration. The final enzyme concentrations used in these assays were 3.3 ng/ml (HDAC1), 0.2 ng/ml (HDAC2) and 0.08 ng/ml (HDAC3). The final substrate concentrations used were 16 μM (HDAC1), 10 μM (HDAC2) and 17 μM (HDAC3). Five μl of compound and 20 μl of enzyme were added to wells of a black, opaque 384 well plate in duplicate. Enzyme and compound were incubated together at room temperature for 24 hours. Five μl of substrate was added to each well, the plate was shaken for 60 seconds and placed into a Victor 2 microtiter plate reader. The development of fluorescence was monitored for 60 min and the linear rate of the reaction was calculated. The IC50 was determined using Graph Pad Prism by a four parameter curve fit.

In a further series the target is T2, HDAC3 (Homo sapiens, UniProt O15379).
T2 construct: purchased BPS Biosciences
T2 sequence (O15379 whole entry): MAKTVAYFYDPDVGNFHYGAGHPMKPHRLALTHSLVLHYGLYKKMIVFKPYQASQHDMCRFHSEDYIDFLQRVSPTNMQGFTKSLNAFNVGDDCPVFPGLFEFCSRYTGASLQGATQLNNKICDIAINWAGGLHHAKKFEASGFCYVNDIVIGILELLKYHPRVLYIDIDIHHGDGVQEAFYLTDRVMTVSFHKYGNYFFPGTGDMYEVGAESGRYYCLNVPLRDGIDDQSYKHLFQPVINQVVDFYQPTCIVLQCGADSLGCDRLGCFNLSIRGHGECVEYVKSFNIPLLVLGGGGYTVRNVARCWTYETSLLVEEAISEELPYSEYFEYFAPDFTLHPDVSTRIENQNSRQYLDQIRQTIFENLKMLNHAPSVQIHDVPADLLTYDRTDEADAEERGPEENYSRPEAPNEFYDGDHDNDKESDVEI
T2 sequence (Q9Y618 395-489 partner limits assumed): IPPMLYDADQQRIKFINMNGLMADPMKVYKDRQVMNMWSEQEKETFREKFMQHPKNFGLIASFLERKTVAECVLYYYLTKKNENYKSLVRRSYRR
In words: HDAC enzyme assay, HDAC3. It counts as biochemical. Particulars: enzyme and compound incubated 24 hours at room temperature. Here is the method: as §1

A short description of series [1]: Pharmacokinetics in plasma and brain after IV administration. It is filed as in vivo. Particulars: IV 1 mg/kg, male C57BL/6 mice. The method, then:
Male C57Bl/6 mice were fasted overnight. Compounds of the invention were dissolved in dimethyl acetamide at 10 times the final concentration, then Solutol HS 15 (BASF) was added to a final concentration of 10%. Finally 80% saline was added and vortexed to achieve a clear solution. Fifteen animals were injected via the tail vein with 1 mg/kg compound. Blood was collected via retro orbital puncture into K2EDTA tubes at 5 minutes, 15 minutes, 30 minutes, 1 hour, 2 hours, 4 hours, 8 hours and 24 hours after dosing. The blood was centrifuged at 2000 g for 5 minutes at 4° C. to obtain plasma. The plasma was extracted with acetonitrile and the level of compound was analyzed by LC/MS/MS. The level of compound in plasma was calculated from a standard curve in mouse plasma. For brain levels, animals were sacrificed at 5 minutes, 15 minutes, 1 hour, 4 hours and 24 hours. Brains were removed and homogenized in acetonitrile and extracted. The level of compound in brain was calculated from a standard curve in mouse brain tissue. The IV clearance and area under the curve were calculated using WinNonLin software. The ratio of area under the curve for plasma and brain samples was calculated to produce the brain/plasma ratio.

T1 sequence (Q92769 whole entry): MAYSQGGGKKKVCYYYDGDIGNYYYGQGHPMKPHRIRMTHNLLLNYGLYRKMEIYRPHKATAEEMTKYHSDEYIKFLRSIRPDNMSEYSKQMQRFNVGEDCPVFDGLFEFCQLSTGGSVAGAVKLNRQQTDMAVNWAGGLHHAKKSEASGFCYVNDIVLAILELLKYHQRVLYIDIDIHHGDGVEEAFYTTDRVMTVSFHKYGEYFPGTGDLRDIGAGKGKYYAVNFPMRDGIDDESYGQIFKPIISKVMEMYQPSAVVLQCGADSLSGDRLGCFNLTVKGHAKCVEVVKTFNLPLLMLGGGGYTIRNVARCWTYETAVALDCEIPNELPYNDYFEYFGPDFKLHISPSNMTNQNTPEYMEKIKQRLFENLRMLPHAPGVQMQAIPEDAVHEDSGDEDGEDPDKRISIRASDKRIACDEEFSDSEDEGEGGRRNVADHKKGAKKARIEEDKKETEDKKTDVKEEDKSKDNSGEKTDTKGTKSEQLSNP

In turn, `Nc1ccc(-c2ccccc2)cc1NC(=O)c1cc2ccc(N3CCNCC3)cc2cn1` [Compound 1] came in with a 50% inhibitory concentration (IC50) against HDAC2 of 13 nM. Besides, the IC50 at HDAC3 was 84 nM. For the same molecule, in series [1], the “brain penetrance (from brain/plasma AUC ratios)” value was “highly brain penetrant”. Also, in series [1] (brain), the AUCINF worked out at 12187 ng·h/g and the AUClast worked out at 10505 ng·h/g. In series [1] (mouse, brain/plasma, read-out: AUCbrain/AUCplasma), the Kp stood at 4.05. For the same molecule, in series [1] (mouse, brain), the Cmax is 675 ng/g, the Tmax is 1 h and the half-life is 9.12 h. For the same molecule, in series [1] (mouse, plasma, PK cassette), the total exposure AUC(0-inf) came to 3010 ng·h/mL, the area under the curve AUC(0-t) came out at 2680 ng·h/mL, the MRT inf worked out at 10.4 h and the clearance is 5.55 mL/min/kg. In series [1] (mouse, plasma, PK cassette), this molecule had a half-life of 7.8 h. Further, the Vd in series [1] (mouse, plasma, PK cassette, read-out: Vss) is 3.47 L/kg.
